Assay results as given in US10398676B2, “Use of alpha-hydroxy carbonyl compounds as reducing agents” (Morvus Technology Ltd, priority 2005, dated 2019).
Marks after values point to notes of the source that are not given here.

Legend:
[1] = Reduction of NADP+ by α-hydroxycarbonyl compounds (Example 7); type: physicochemical; settings: 1 mM test compound, 200 μM NADP+, pH 10 (1 mM NaHCO3 buffer), over 2 minutes
Protocol: A 10 μL aliquot of test compound (at a concentration of 100 mM in water) is added to a 200 μM NADP^+ aqueous solution (approximately 990 μL), buffered to pH 10 (1 mM NaHCO3 buffer). The final concentration of the test compound in the assay solution was 1 mM. Reduction of NADP^+ was then monitored by measuring the increase, over the course of 2 minutes, of absorption at 350 nm on a spectrophotometer. Initial rates were recorded as the change in A350 per minute.

[2] = Reduction of tretazicar by α-hydroxycarbonyl compounds, HPLC initial rate (Example 8); type: physicochemical; settings: 10 mM test compound, 100 μM tretazicar, 0.1 M sodium bicarbonate buffer; for Initial Rate of tretazicar reduction, pH 9: pH 9, 37° C.; for Initial Rate of tretazicar reduction, pH 10: pH 10, 37° C.
Protocol: The assay was started by addition of 100 μL of 100 mM test compound (compound of formula I) in water to a mixture of tretazicar (100 μM) in 0.1 M sodium bicarbonate buffer, pH 9 or pH 10, to give a final volume of 1 mL. The mixture was incubated at 37° C. and aliquots (10 μL) were taken every 6 min and assayed immediately by HPLC [Partisil 10 SCX (4.2×150 mm) (Whatman, Maidstone, Kent, U.K.] eluted isocratically with 0.13 M sodium phosphate (pH 5) at 1.5 ml/min). The concentration of tretazicar was determined in each sample by reference of the corresponding peak area with an external standard, quantified by absorbance at 325 nm. Initial rates were calculated by curve fitting (FigP, Biosoft, Cambridge, U.K.). Reduction products were identified by retention time relative to an authentic standard.

[3] = DHA reduction of prodrugs and nitro compounds, HPLC initial rate (Examples 5 and 6); type: physicochemical; settings: 100 μM compound, 10 mM DHA, 37° C.
Protocol: The assay mixture contained the compound under test (100 μM) and DHA (10 mM) in a final reaction volume of 1 mL of sodium phosphate buffer (of the required pH). The reaction was started by addition of DHA and the mixture is incubated at 37° C.

[4] = tested on: Chinese Hamster V79 cells; assay: Survival of V79 cells, colony forming ability (FIG. 7); type: cell-based; settings: 10 or 100 μM E09 with 10 mM DHA, 2 hours, pH 7.5, 37° C.
Protocol: The survival of V79 cells was determined using the following method: • Volumes (1 mL, 2×10^5 cells/mL) of V79 cells in 10 mM phosphate buffer (pH 7.5) containing 140 mM NaCl were incubated at 37° C. and then reagents (as indicated above, at the concentrations stipulated) were added (except for the control experiment). After a 2 hour incubation, the cells were harvested by centrifugation, diluted out serially (4×10-fold) and the cells plated into growth medium and assayed for their colony forming ability after growth for 1 week in a humidified 5% CO2 atmosphere.

[5] = DHA reduction of prodrugs and nitro compounds, HPLC initial rate (Examples 5 and 6); type: physicochemical; settings: 100 μM compound, 1 mM DHA employed (instead of 10 mM DHA), 37° C.

Molecule	Rate of NADP+ reduction [1] [change in A350 per minute]	Initial Rate of tretazicar reduction, pH 9 [2] [nmoles/min/mL]	Initial Rate of tretazicar reduction, pH 10 [2] [nmoles/min/mL]	Initial Rate, pH 8 [3] [nmoles/min/mL]	Initial Rate, pH 9 [3]	Initial Rate, pH 10 [3] [nmoles/min/mL]	INITIAL RATE, 0.1 M PO4, pH7.5 [3] [nmoles/min/mL]	INITIAL RATE, 0.1 M PO4, pH8 [3] [nmoles/min/mL]	other results
O=CC(O)CO (racemic) [D,L-Glyceraldehyde]	0.015	0.53	0.62	–	–	–	–	–	–
CC(=O)C(C)O (stereo not drawn) [3-hydroxy-2-butanone]	–	0.034	0.184	–	–	–	–	–	–
O=C(O)c1cc([N+](=O)[O-])c(Cl)c([N+](=O)[O-])c1 [4-chloro-3,5-dinitrobenzoic acid]	–	–	–	0.195	1.293 nmoles/min/mL	1.727	–	–	Initial Rate, pH 10.6 [3]: 2.442 nmoles/min/mL
O=[N+]([O-])c1ccc(CO)cc1 [4-nitrobenzyl alcohol]	–	–	–	< 0.01	< 0.01 nmoles/min/mL	0.105	–	–	Initial Rate, pH 10.6 [3]: 0.087 nmoles/min/mL
Cc1cc(Cl)c([N+](=O)[O-])cc1[N+](=O)[O-] [5-chloro-2,4-dinitrotoluene]	–	–	–	0.132	0.499 nmoles/min/mL	0.690	–	–	Initial Rate, pH 10.6 [3]: 1.703 nmoles/min/mL
O=CC(O)C(O)CO (stereo not drawn) [D(−)-Erthrose]	0.004	< 0.01	0.28	–	–	–	–	–	–
O=C(CO)CO [Dihydroxyacetone (dimer), 1,3-dihydroxy-2-propanone]	0.063	0.92	0.69	–	–	–	–	–	–
Cn1c(/C=C/CO)c(CO)c2c1C(=O)C=C(N1CC1)C2=O [E09, 3-[5-aziridinyl-4,7-dioxo-3-hydroxymethyl-1-methyl-1H-indol-2-yl]-prop-β-ene-α-ol]	–	–	–	–	–	–	0.272	0.605	cytotoxic effect (percentage survival of V79 cells) on addition of DHA [4]: greatly enhanced
O=C(CO)[C@H](O)[C@@H](O)CO [L-Xylulose]	0.003	< 0.01	0.28	–	–	–	–	–	–
Cc1ncc([N+](=O)[O-])n1CCO [Metronidazole, 2-methyl-5-nitro-1H-imidazole-1-ethanol]	–	–	–	0.369	0.890 nmoles/min/mL	1.239	0.131	0.369	Initial Rate, pH 10.6 [3]: 0.807 nmoles/min/mL
COCC(O)Cn1ccnc1[N+](=O)[O-] (stereo not drawn) [Misonidazole]	–	–	–	1.922	1.851 nmoles/min/mL	3.180	0.221	1.922	–
CO[C@@]12[C@H](COC(N)=O)C3=C(C(=O)C(C)=C(N)C3=O)N1C[C@@H]1N[C@@H]12 [Mitomycin C]	–	–	–	–	Too fast to measure	–	–	–	INITIAL RATE, pH7.5 column, (PBS) ([3]; PBS): 1.524 (PBS) nmoles/min/mL; Initial Rate, pH 7 ([3]; pH 7): 1.019 nmoles/min/mL; INITIAL RATE, 0.1 M PO4, pH8, 1 mM DHA ([5]; pH8): 0.052^a nmoles/min/mL; Initial Rate, pH 8, 1 mM DHA ([5]; pH8): 0.052 nmoles/min/mL; Initial Rate, pH 8.5, 1 mM DHA ([5]; pH 8.5): 0.103 nmoles/min/mL
NC(=O)N/N=C/c1ccc([N+](=O)[O-])o1 [Nitrofurazone, 2-[(5-nitro-2-furanyl)methylene]hydrazinecarboxamide]	–	–	–	0.203	2.390 nmoles/min/mL	3.789	0.177	0.203	Initial Rate, pH 7.5 [3]: 0.177 nmoles/min/mL; Initial Rate, pH 8.5 [3]: 0.260 nmoles/min/mL
O=[N+]([O-])c1nccn1CC(O)CN1CC1 (stereo not drawn) [RSU-1069/RB-1645, 1-(1-aziridinyl)-3-(2-nitro-1-imidazolyl)-2-propanol]	–	–	–	–	–	–	<0.01	2.57	–
Nc1n[n+]([O-])c2ccccc2[n+]1[O-] [Tirapazamine, 3-amino-1,2,4-benzotriazine-1,4-dioxide]	–	–	–	0.512	3.503 nmoles/min/mL	4.209	0.523	0.512	Initial Rate, pH 7.5 [3]: 0.523 nmoles/min/mL; Initial Rate, pH 8.5 [3]: 0.639 nmoles/min/mL
Glycolaldehyde [Glycolaldehyde dimer]	0.029	0.18	0.14	–	–	–	–	–	–
Hydroxyacetone [Hydroxyacetone (acetol)]	0.003	–	–	–	–	–	–	–	–
